Data as given in US20260116884A1, “PROTAC CHIMERIC COMPOUND, PREPARATION METHOD THEREFOR AND USE THEREOF” (HANGZHOU ZHONGMEIHUADONG PHARMACEUTICAL CO., LTD., priority 2022, published 2026).
pIC50: −log10 of the molar value. Read-outs that look alike come from different tables or passages of the source.

How the values were obtained:
[1] = biological target: T1, human HPK1 (Homo sapiens, UniProt Q92918); assay: HPK1 protein degradation assay (WB) in RAMOS cell line; assay type: cell-based; design: The RAMOS cell line was selected as the degradation cell line; endogenous in cells; host or cells: RAMOS; details: RAMOS cells, 16 h, Western blot
T1 sequence (Q92918 whole entry): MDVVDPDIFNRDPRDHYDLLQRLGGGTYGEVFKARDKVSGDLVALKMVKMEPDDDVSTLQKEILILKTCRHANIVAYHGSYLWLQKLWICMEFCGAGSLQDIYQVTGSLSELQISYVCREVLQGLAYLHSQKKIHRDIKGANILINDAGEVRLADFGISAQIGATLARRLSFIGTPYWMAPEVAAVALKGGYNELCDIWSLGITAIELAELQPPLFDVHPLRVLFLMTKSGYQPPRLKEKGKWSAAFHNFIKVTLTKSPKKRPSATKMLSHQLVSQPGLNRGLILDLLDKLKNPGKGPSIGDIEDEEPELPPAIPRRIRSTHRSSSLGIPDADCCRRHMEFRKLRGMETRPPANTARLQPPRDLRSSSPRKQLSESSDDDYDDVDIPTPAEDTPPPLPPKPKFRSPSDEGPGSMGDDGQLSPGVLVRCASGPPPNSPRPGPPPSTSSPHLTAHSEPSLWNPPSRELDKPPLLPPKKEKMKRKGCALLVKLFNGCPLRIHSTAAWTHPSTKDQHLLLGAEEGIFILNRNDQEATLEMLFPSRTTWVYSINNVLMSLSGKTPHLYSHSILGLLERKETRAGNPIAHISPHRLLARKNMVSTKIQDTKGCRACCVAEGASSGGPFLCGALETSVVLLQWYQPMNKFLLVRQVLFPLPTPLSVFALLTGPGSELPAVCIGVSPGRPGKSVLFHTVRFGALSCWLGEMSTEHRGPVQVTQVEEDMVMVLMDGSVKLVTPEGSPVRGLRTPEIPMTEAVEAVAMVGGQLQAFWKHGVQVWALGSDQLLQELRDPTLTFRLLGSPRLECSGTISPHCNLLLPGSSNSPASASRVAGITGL
Experimental: Degradation of HPK1 proteins and DC50/Dmax were determined by the WB method in order to evaluate the in vitro degradative ability of the compound.
The RAMOS cell line was selected as the degradation cell line. Incubation Conditions: RMPI 1640 culture medium supplemented with 10% FBS, 37° C., 5% CO2.
• (1) Plating cells: in a 6 cm dish with 4 ml of the culture medium, cells plated at 2×10^6 cells/dish. • (2) Drug addition: the compound (stock solution concentration: 10 mM) was diluted with DMSO in a dilution plate, with a maximum starting concentration of 10 μM and 7 concentration gradient points (3-fold dilution). 4 μl of each diluted solution was taken, added to a dish, and incubated for 16 h. • (3) Cells were harvested, added with a lysis buffer, and centrifuged at 12000 rpm/min for 20 min. The supernatant was collected. After quantification using a BCA quantification kit, 5× loading buffer was added to denature for 10 min. • (4) 10 μg of denatured protein was added to the SDS-PAGE gel. After electrophoresis and membrane transfer, the plate was blocked with 5% BSA for 1 h, incubate with the primary antibody at 4° C. overnight. After washing off the primary antibody, the secondary antibody was added, incubated at room temperature for 1 h, and washed off.
Imaging: the membranes were scanned with a two-color fluorescence imaging system.

[2] = biological target: T1, human HPK1; assay: Assay of in vitro HPK1 enzymatic activity (ADP-Glo); assay type: biochemical; details: 7 nM kinase, 20 uM ATP
Experimental: Compounds were evaluated for their ability to inhibit human HPK1 by IC50 determination using the ADP-Glo method to measure the kinase activity.
Buffer conditions of the enzyme: 50 mM Hepes (pH 7.5), 10 mM MgCl2, 1 mM EGTA, 0.01% Brij35, 2 mM DTT.
Preparation of the Kinase and substrate mixture: the working concentration of the kinase in the HPK1 reaction solution was 7 nM and the working concentration of ATP was 20 uM.
The compound was diluted with DMSO in a dilution plate, with a maximum starting concentration of 1 uM and 10 concentration gradient points (4-fold dilution).
Each of the above 10 concentration gradient points of the compound was then diluted 50-fold into the kinase reaction buffer and shaken on a shaker for 20 min. The kinase was prepared in an enzyme reaction buffer and 2 μl of the HPK1 kinase was added per well of the reaction plate at a HPK1 kinase concentration of 7 nM.
1 μl of diluted compound in the buffer was added per well, and the plate was sealed with a plate sealing film, centrifuged at 1000 g for 30 seconds, and left at room temperature for 10 minutes. An ATP solution was prepared with an enzyme reaction buffer and 2 μl of the ATP solution was added to the reaction plate (the working concentration of ATP was 20 uM). The plate was sealed with a plate sealing film, centrifuged at 1000 g for 30 seconds, and reacted at room temperature for 60 minutes. 4 μL of ADP-Glu was transferred to a 384 reaction plate, centrifuged at 1000 rpm/min for 1 min, and incubated at 25° C. for 40 min. 8 μL of the Detection solution was transferred to a 384 reaction plate, centrifuged at 1000 rpm/min for 1 min, and incubated at 25° C. for 40 min. The RLU (Relative luminescence unit) signal was read using a BMG microplate reader, and the signal intensity was used to characterize the activity level of the kinase.
The kinase activity data was expressed by comparing the kinase activity of the test compound and the blank group (containing only DMSO), and the IC50 value was obtained by curve fitting using the Prism software (GraphPad7.0).

[3] = Pharmacokinetics of single administration in mice; assay type: in vivo, Balb/c mice; design: Vz: unit not given here
Experimental: Female Balb/c mice (weighing 18-22 g) were fasted overnight prior to the experiment. The test compound was dissolved in the vehicle, DMSO:PEG400:30% captisol:HCl=5:20:70:5 (v/v/v/v), and administered by single oral gavage at a dose of 10 mg/kg or by intravenous injection at a dose of 2 mg/kg. Blood samples were collected from the orbital venous plexus at 15 minutes, 30 minutes, and 1, 2, 4, 6, 8, and 24 h after administration. Approximately 0.08 mL of blood was collected at each time point and placed in a 1.5 mL centrifuge tube containing EDTA-2K anticoagulant. Blood samples were centrifuged (3200 g, 10 min, 4° C.) within 2 h to obtain plasma samples. Plasma samples were frozen at −70° C. to −80° C. in an ultra-low temperature freezer prior to processing. Before sample processing, the plasma samples were taken out of the freezer. After thawing at room temperature, 20 μL of each plasma sample was added into a 96-well plate, and then 120 μL of acetonitrile containing an internal standard was added to precipitate proteins. […] The supernatant was taken and mixed with an equal volume of 0.1% aqueous formic acid solution for LC-MS/MS analysis.

[4] = female, Balb/c, mouse, plasma, iv 2 mg/kg
[5] = female, Balb/c, mouse, plasma, iv 2 mg/kg, read-out: AUC
[6] = female, Balb/c, mouse, plasma, po 10 mg/kg
[7] = female, Balb/c, mouse, plasma, po 10 mg/kg vs iv 2 mg/kg
[8] = female, Balb/c, mouse, plasma, po 10 mg/kg, read-out: AUC
[9] = female, Balb/c, mouse, plasma, po 10 mg/kg, read-out: Cmax

Row | SMILES | DC50 [1] [µM] | Dmax [1] [%] | further results
1 | CCN1CCC(n2cc(-c3c[nH]c4ncc(-c5ccc(N6CCC(F)(CN7CCN(C(=O)c8ccc(Cl)c(N9CCC(=O)NC9=O)c8)CC7)CC6)cc5)nc34)cn2)CC1 [Compound C137] | 0.23 | 58.4 | 
2 | CCN1CCC(n2cc(-c3c[nH]c4ncc(-c5cnn(C6CCN(C7CCC(NC(=O)c8ccc(Cl)c(N9CCC(=O)NC9=O)c8)CC7)CC6)c5)nc34)cn2)CC1 (centres unmarked) [Compound C036] |  |  | pIC50 [2]: 8.43
3 | CCN1CCC(n2cc(-c3c[nH]c4ncc(-c5ccc(N6CCN(C7CCC(NC(=O)c8ccc(Cl)c(N9CCC(=O)NC9=O)c8)CC7)CC6)nc5)nc34)cn2)CC1 (centres unmarked) [Compound C027] |  |  | pIC50 [2]: 9.05
4 | CCN1CCC(n2cc(-c3c[nH]c4ncc(-c5ccc(N6CCC(CC7CCCN(C(=O)c8ccc(Cl)c(N9CCC(=O)NC9=O)c8)CC7)CC6)nc5)nc34)cn2)CC1 (centres unmarked) [Compound C085] | 0.385 | 56.4 | 
5 | O=C1CCN(c2cc(C(=O)N3CCC(CC4CCN(c5ccc(-c6cnc7[nH]cc(-c8cn[nH]c8)c7n6)cn5)CC4)CC3)ccc2Cl)C(=O)N1 [Compound C198] | 0.0329 | 91.8 | 
6 | CCN1CCC(n2cc(-c3c[nH]c4ncc(-c5ccc(OCCCCNC(=O)c6ccc(Cl)c(N7CCC(=O)NC7=O)c6)nc5)nc34)cn2)CC1 [Compound C038] |  |  | pIC50 [2]: 7.66
7 | CCc1c[nH]c2ncc(-c3ccc(N4CCC(CC5CCN(C(=O)c6ccc(Cl)c(N7CCC(=O)NC7=O)c6)CC5)CC4)nc3)nc12 [Compound C205] | 0.0899 | 83 | 
8 | Cc1ccc(C(=O)N2CCC(CC3CCN(c4ncc(-c5cnc6[nH]cc(-c7cnn(C)c7)c6n5)cn4)CC3)CC2)cc1N1CCC(=O)NC1=O [Compound C204] | 0.058 | 85.4 | 
9 | CCN1CCC(n2cc(-c3c[nH]c4ncc(-c5ccc(N6CCC(CC7CCN(C(=O)c8ccc(Cl)c(N9CCC(=O)NC9=O)c8)CC7C)CC6)cc5)nc34)cn2)CC1 (centres unmarked) [Compound C115] | 0.0235 | 66.4 | 
10 | COCCn1cc(-c2c[nH]c3ncc(-c4ccc(N5CCC(CC6CCN(C(=O)c7ccc(Cl)c(N8CCC(=O)NC8=O)c7)CC6)CC5)nc4)nc23)cn1 [Compound C201] | 0.0306 | 76.1 | clearance [3, 4]: 0.395 L/h/kg; half-life [3, 4]: 2.16 h; AUC [3, 5]: 5.05 µg·h/mL; half-life [3, 6]: 2.63 h; bioavailability [3, 7]: 34.2%; AUC [3, 8]: 8.66 µg·h/mL; Cmax [3, 9]: 4.5 µg/mL; Vz ([3]; iv 2 mg/kg): 1230
11 | O=C1CCC(c2cc(C(=O)N3CCC(CC4CCN(c5ccc(-c6cnc7[nH]cc(-c8cnn(CCO)c8)c7n6)cn5)CC4)CC3)ccc2Cl)C(=O)N1 (centres unmarked) [Compound C209] | 0.029 | 84 | 
12 | O=C1CCN(c2cc(C(=O)N3CCC(CC4CCN(c5ccc(-c6cnc7[nH]cc(-c8cnn(CCF)c8)c7n6)cn5)CC4)CC3)ccc2Cl)C(=O)N1 [Compound C197] | 0.00528 | 77.5 | clearance [3, 4]: 0.27 L/h/kg; AUC ([3]; iv 2 mg/kg): 7.397 µg·h/mL; Vz ([3]; iv 2 mg/kg): 917; t1/2 ([3]; iv 2 mg/kg): 2.35 h; AUC ([3]; po 10 mg/kg): 9.202 µg·h/mL; Cmax ([3]; po 10 mg/kg): 4.68 µg/mL; t1/2 ([3]; po 10 mg/kg): 3.18 h; F % ([3]; po 10 mg/kg vs iv 2 mg/kg): 25.1%
13 | Cn1cc(-c2c[nH]c3ncc(-c4ccc(N5CCC(CC6CCN(C(=O)c7ccc(Cl)c(C8CCC(=O)NC8=O)c7)CC6)CC5)nc4)nc23)cn1 (centres unmarked) [Compound C206] | 0.19 | 73 | 
14 | Cn1cc(-c2c[nH]c3ncc(-c4cnc(N5CCC(CC6CCN(C(=O)c7ccc(Cl)c(N8CCC(=O)NC8=O)c7)CC6)CC5)nc4)nc23)cn1 [Compound C203] | 0.00599 | 91.7 | 
15 | CCN1CCC(n2cc(-c3c[nH]c4ncc(-c5ccc(N6CCC(CC7CCN(C(=O)c8ccc(Cl)c(N9CCC(=O)NC9=O)c8)CC7)CC6)nc5)nc34)cn2)CC1 [Compound C092] | 0.0214 |  | 
16 | O=C1CCN(c2cc(C(=O)N3CCC(CC4CCN(c5ccc(-c6cnc7[nH]cc(-c8cnn(CC(F)F)c8)c7n6)cn5)CC4)CC3)ccc2Cl)C(=O)N1 [Compound C195] | 0.0187 | 80.7 | clearance [3, 4]: 0.0471 L/h/kg; half-life [3, 4]: 2.41 h; AUC [3, 5]: 42.5 µg·h/mL; half-life [3, 6]: 2.8 h; bioavailability [3, 7]: 20.7%; AUC [3, 8]: 44 µg·h/mL; Cmax [3, 9]: 14.3 µg/mL; Vz ([3]; iv 2 mg/kg): 164
17 | O=C1CCN(c2cc(C(=O)N3CCC(CC4CCN(c5ccc(-c6cnc7[nH]cc(-c8cnn([C@@H]9CCOC9)c8)c7n6)cn5)CC4)CC3)ccc2Cl)C(=O)N1 [Compound C199] | 0.083 | 83.8 | 
18 | O=C1CCN(c2cc(C(=O)N3CCC(CC4CCN(c5ccc(-c6cnc7[nH]cc(-c8cnn(CC9CC9)c8)c7n6)cn5)CC4)CC3)ccc2Cl)C(=O)N1 [Compound C177] | 0.632 | 51.6 | 
19 | CC(C)(C#N)n1cc(-c2c[nH]c3ncc(-c4ccc(N5CCC(CC6CCN(C(=O)c7ccc(Cl)c(N8CCC(=O)NC8=O)c7)CC6)CC5)nc4)nc23)cn1 [Compound C181] | 0.214 | 64.4 | 
20 | CCN1CCC(n2cc(-c3c[nH]c4ncc(-c5ccc(N6CCC(CN7CCN(C(=O)c8ccc(Cl)c(N9CCC(=O)NC9=O)c8)CC7)CC6)nc5)nc34)cn2)CC1 [Compound C084] | 0.00121 | 93 | 
21 | O=C1CCN(c2cc(C(=O)N3CCC(CC4CCN(c5ccc(-c6cnc7[nH]cc(-c8cnn(C(F)F)c8)c7n6)cn5)CC4)CC3)ccc2Cl)C(=O)N1 [Compound C167] | 0.0239 | 66.8 | 
22 | O=C1CCN(c2cc(C(=O)N3CCC(CC4CCN(c5ccc(-c6cnc7[nH]cc(-c8cnn(CC(F)(F)F)c8)c7n6)cn5)CC4)CC3)ccc2Cl)C(=O)N1 [Compound C196] |  | 93.8 | 
23 | Cn1cc(-c2c[nH]c3ncc(-c4ccc(N5CCC(CC6CCN(C(=O)c7ccc(Cl)c(N8CCC(=O)NC8=O)c7)CC6)CC5)cc4)nc23)cn1 [Compound C140] | 0.198 | 50.7 | 
